Like-named read-outs stand apart in the source and are kept apart here.
What was measured:
[1] = Cytotoxicity, MTT assay in CEM-T4 cells; type: cell-based; details: human
Procedure: For the determination of compounds’ cytotoxicity, CEM-T4 cells were obtained from the NIH AIDS Reagent Program (NIH, US) and were cultured in RPMI supplemented with 10% FCS (Biochrom) and antibiotics at 37 °C in 5% CO2 on 96-well culture plates. The experiments were carried out in media containing tested compounds in concentrations of the appropriate range. Cultures in a neat medium (RPMI, 10% FCS) were used as a control. Viability of cells was determined after 7 days using the MTT assay in which 10 μL of MTT solution (5 mg/mL) was added to each culture plate well, and cultures were incubated for 3 h at a temperature of 37 °C. After the centrifugation, the supernatant was removed, and DMSO was added for lysis of the cells and to dissolve crystals of formazan. Color intensity was measured with a plate reader at 560 nm.
Newly synthesized compounds 2–5 were evaluated for their activity against HIV-1 in a CEM-T4 cell line. First, a cytotoxicity assessment of the synthesized derivatives was performed using the MTT [3-(4,5-dimethylthiazol-2-yl)-2,5-diphenyltetrazolium bromide]. The results were expressed as CC50 (concentration of compound causing 50% cell death). Anti-HIV activity was expressed as IC50 (concentration of compound causing 50% inhibition of replication) and consisted of measurements of p24 antigen made using the Genscreen ULTRA HIV Ag-Ab Kit.

[2] = test system: HIV-1; assay: Anti-HIV-1 replication activity, p24 antigen ELISA in HIV-infected CEM-T4 cell line; type: cell-based; details: for IC50: Human immunodeficiency virus 1, CEM-T4, 168 h; for ability to inhibit HIV replication: tested range of concentrations 0.02 to 10 μM; for TI: therapeutic index (selectivity index), the ratio of CC50 to IC50
[3] = cytotoxicity; cited from earlier work
[4] = test system: HIV-1; design: method as in PMID 31640137; details: in vitro anti-HIV-1 activity; cited from earlier work
[5] = concentration causing 50% cell death, CEM-T4 cells, MTT, 7 days, read-out: CC50
[6] = cytotoxicity values, CEM-T4 cells, read-out: IC50 (cytotoxicity)

**Q.** Which results are given for C=C(C)[C@@H]1CC[C@]2(C(=O)O)CC[C@]3(C)[C@H](CC[C@@H]4[C@@]5(C)CC[C@H](OC(=O)CC(C)(C)C(=O)O)C(C)(C)[C@@H]5CC[C@]43C)[C@@H]12 [BVM, 3-O-(3’,3’-dimethylsuccinyl)betulinic acid, reference compound]?
**A.** CC50 at 7 days [1]: 29 ± 2.43 µM; IC50 at 7 days [1]: 29 µM; IC50 [2]: 0.03 ± 0.009 µM

**Q.** With C=C(C)[C@@H]1CC[C@]2(CO)CC[C@]3(C)[C@H](CC[C@@H]4[C@@]5(C)CC[C@H](O)C(C)(C)[C@@H]5CC[C@]43C)[C@@H]12 [Compound 1, Betulin] as the compound, how does the CC50 at 7 days [1, 5] read?
**A.** 46 ± 3.01 µM

**Q.** What about the IC50 [2] of the same compound?
**A.** > 10 µM

**Q.** And the “ability to inhibit HIV replication” value [2]?
**A.** did not demonstrate the ability to inhibit HIV replication

**Q.** What does the source list for C=C(C)[C@@H]1CC[C@]2(COP(=O)(OCC)OCC)CC[C@]3(C)C(CCC4[C@@]5(C)CC[C@H](O)C(C)(C)C5CC[C@]43C)C12 (some centres unmarked) [Compound 2, 28-Diethoxyphosphorylbetulin]?
**A.** CC50 at 7 days [1, 5]: 18.3 ± 1.64 µM; IC50 [2]: > 10 µM; ability to inhibit HIV replication [2]: did not demonstrate the ability to inhibit HIV replication

**Q.** With C=C(C)[C@@H]1CC[C@]2(COP(=O)(OCC)OCC)CC[C@]3(C)C(CCC4[C@@]5(C)CC[C@H](OC(=O)CC(C)(C)C(=O)O)C(C)(C)C5CC[C@]43C)C12 (some centres unmarked) [Compound 3, 28-Diethoxyphosphoryl-3-O-(3′,3′-dimethylsuccinyl)betulin] as the compound, how does the CC50 at 7 days [1, 5] read?
**A.** 25.4 ± 1.54 µM

**Q.** What about the IC50 at 7 days [1, 6] of the same compound?
**A.** 25.4 µM

**Q.** And the IC50 [2]?
**A.** 0.02 ± 0.01 µM

**Q.** What about the TI [2] of the same compound?
**A.** 1250

**Q.** Which results are given for C=C(C)[C@@H]1CC[C@]2(COP(=O)(OCC)OCC)CC[C@]3(C)C(CCC4[C@@]5(C)CC[C@H](OC(=O)CC(C)(C)CC(=O)O)C(C)(C)C5CC[C@]43C)C12 (some centres unmarked) [Compound 4, 28-Diethoxyphosphoryl-3-O-(3′,3′-dimethylglutaryl)betulin]?
**A.** CC50 at 7 days [1, 5]: 19.7 ± 1.64 µM; IC50 at 7 days [1, 6]: 19.7 µM; IC50 [2]: 0.04 ± 0.01 µM; TI [2]: 500

**Q.** Which results are given for C=C(C)[C@@H]1CC[C@]2(COP(=O)(OCC)OCC)CC[C@]3(C)C(CCC4[C@@]5(C)CC[C@H](OC(=O)CCC(C)(C)C(=O)O)C(C)(C)C5CC[C@]43C)C12 (some centres unmarked) [Compound 5, 28-Diethoxyphosphoryl-3-O-(4′,4′-dimethylglutaryl)betulin]?
**A.** CC50 at 7 days [1, 5]: 15.1 ± 1.27 µM; IC50 at 7 days [1, 6]: 15.1 µM; IC50 [2]: 0.22 ± 0.05 µM; TI [2]: 68

**Q.** For C=C(CP(=O)(OCC)OCC)[C@@H]1CC[C@]2(C(=O)O)CC[C@]3(C)C(CC[C@@H]4[C@@]5(C)CC[C@H](OC(=O)CC(C)(C)C(=O)O)C(C)(C)C5CC[C@]43C)[C@@H]12 (some centres unmarked) [Compound 6, 30-diethoxyphosphoryl-3-O-(3′,3′-dimethylsuccinyl)betulinic acid], which CC50 [3] is on record?
**A.** 68 µM

**Q.** What about the IC50 [4] of the same compound?
**A.** 0.02 µM

Reference: paper PMC7464173, “Phosphate Derivatives of 3-Carboxyacylbetulin: SynThesis, In Vitro Anti-HIV and Molecular Docking Study” (Biomolecules, 2020)
